Assay results as given in US20030190365A1, “Methods for wet granulating azithromycin” (Pfizer Inc., priority 2001, published 2003).

Tests used:
[1] = Equilibrium solubility of azithromycin forms in granulating liquids (HPLC-UV)
Description: Equilibrium solubility of several different forms of azithromycin, in typical liquids used in the wet granulation process, were evaluated as follows.
Excess azithromycin was added as a solid into each respective test liquid and mixed by rotation using a Labquake Rotating Mixer® at 7 revolutions per minute (RPM). Duplicate samples were run for each condition. Excess drug material was added to achieve saturation. Once saturation was achieved, the samples were rotated for 48 hours with sampling intervals at 24 and 48 hours. Azithromycin form A was also set up for a 7-day equilibrium solubility analysis to assure equilibrium beyond 48 hours. At each sampling interval, approximately half (1 mL) the sample was transferred into a polyethylene microcentrifuge tube and centrifuged at 15,000 RPM for 20 minutes using the Eppendorf Centrifuge Model # 5403. Following centrifugation, the liquid layer was pipetted and diluted with 0.04 M potassium phosphate dibasic (pH=8): acetonitrile (4:6). Dilutions were made accordingly until the peak area fell into the linear curve range of the standards (0.15 to 1.5 mgA/mL). Samples were run by HPLC (HP-1100 system, Agilent Technologies, Wilmington, Del.) with UV detection at 210 nm. The sample data was calculated by linear regression against the standard curve based on azithromycin form A.

[2] = As-is and tapped density of bulk drug and dried granulations (Van Kel tap density tester); type: physicochemical
Description: Form F bulk drug contained soft lumps and was sieved through an 18 mesh (1.0 mm) screen before use. A small-scale granulation process, as described in Example 1, was used for samples of 5 g of bulk drug. The liquid was pipetted in 0.1 to 1.0 mL increments until a granulation was formed, based on visual observations, followed by wet mixing for 3-5 minutes. All three runs formed wet granulations, but the run with water was much less granular than the non-aqueous runs. All of the samples were dried overnight at 40° C. for 16 hours. […] The two nonaqueous liquid runs appeared to be only ˜50% granules, and the water run was only slightly granular.
Samples of the dried granules were then hand sieved through an 18 mesh screen and the density was determined, as shown above in Table 2C. SEM's were taken of dried samples both before and after sieving was done to aid in the evaluation.
A small-scale process, as described in Example 1, was used to granulate the formulations. The ingredients (except for the lubricant), to make a 10 g lot for each run, were pre-blended for 5 minutes on a Turbula Shaker-Mixer (Willy A. Bachofen AG Maschinenfabrik, Basel, Switzerland). The blend was granulated per Example 1. The liquid was pipetted in 0.1 to 1.0 mL increments and mixed for 2.5-6 minutes until a granulation was formed. All of the samples were dried overnight at 40° C. for 16 hours. The amount of densification varied depending on the excipients used in the formulation. […] Tablets were not made from these four granulation runs because of the poor quality.
A small-scale process, as described in Example 1, was used to granulate the formulations into 10 g lots. The liquid was pipetted in 0.1 to 1.0 mL increments and mixed for 2-5 minutes until a granulation was formed. All of the samples were dried overnight at 40° C. for 16 hours in a forced hot air oven and then hand sieved through a 18 mesh (1.0 mm) screen.
A small-scale process, as described in Example 1, was used to granulate the formulations. The granulating liquid was pipetted in 0.1 to 1.0 mL increments and mixed with the 9.3 g of the dry blend for 3-6 minutes until a granulation was formed. The granulating amount, of 30, 27 and 29%, was used for the PVP granulating liquid in ethanol, water and 50:50 ethanol:water, respectively. The amount of liquid used was 2.5-3 mL, therefore the amount of solid (PVP) added in solution based on the 10 g final batch size was from about 0.25 to 0.3%. All of the samples were dried overnight at 40° C. for 16 hours and then hand sieved through a 16 mesh (1.2 mm) screen.
A small-scale process, as described in Example 1, was used to granulate the formulations to make 10 g lots. Each formulation was pre-blended for 5 minutes on a Turbula Shaker-Mixer (Willy A. Bachofen AG Maschinenfabrik, Basel, Switzerland) for 5 minutes. The blend was then granulated as described in Example 1. The liquid was pipetted in 0.1 to 1.0 mL increments and mixed for 4-8 minutes until a granulation was formed. All of the samples were dried overnight at 40° C. for 16 hours and then hand sieved through a 16 mesh (1.2mm) screen. The densities of the granulations were then compared to the bulk drug and to each other. The amount of densification varied depending on the components used in the formulation.

[3] = 24 hours, EtOH 33% in water v/v
[4] = 24 hours, EtOH 67% in water v/v
[5] = 48 hours, EtOH 33% in water v/v
[6] = 48 hours, EtOH 67% in water v/v

CC[C@H]1OC(=O)[C@H](C)[C@@H](O[C@H]2C[C@@](C)(OC)[C@@H](O)[C@H](C)O2)[C@H](C)[C@@H](O[C@@H]2O[C@H](C)C[C@H](N(C)C)[C@H]2O)[C@](C)(O)C[C@@H](C)CN(C)[C@H](C)[C@@H](O)[C@]1(C)O [form A, 9-deoxo-9a-aza-9a-methyl-9a-homoerythromycin A, reference compound]
solubility [1, 3]: 1.30 mgA/mL | solubility [1, 4]: 27.48 mgA/mL | solubility ([1]; 24 hours, EtOH 100% neat): 219.74 mgA/mL | solubility ([1]; 24 hours, IPA 33% in water v/v): 5.50 mgA/mL | solubility ([1]; 24 hours, IPA 67% in water v/v): 68.71 mgA/mL | solubility ([1]; 24 hours, IPA 100% neat): 291.91 mgA/mL | solubility ([1]; 24 hours, water): 0.10 mgA/mL | solubility [1, 5]: 1.23 mgA/mL | solubility [1, 6]: 27.25 mgA/mL | solubility ([1]; 48 hours, EtOH 100% neat): 211.59 mgA/mL | solubility ([1]; 48 hours, IPA 33% in water v/v): 5.25 mgA/mL | solubility ([1]; 48 hours, IPA 67% in water v/v): 67.70 mgA/mL | solubility ([1]; 48 hours, IPA 100% neat): 280.91 mgA/mL | solubility ([1]; 48 hours, water): 0.14 mgA/mL | solubility ([1]; 7 days, EtOH 33% in water v/v): 1.27 mgA/mL | solubility ([1]; 7 days, EtOH 67% in water v/v): 27.02 mgA/mL | solubility ([1]; 7 days, EtOH 100% neat): 214.76 mgA/mL | solubility ([1]; 7 days, IPA 33% in water v/v): 5.28 mgA/mL | solubility ([1]; 7 days, IPA 67% in water v/v): 66.63 mgA/mL | solubility ([1]; 7 days, IPA 100% neat): 286.45 mgA/mL | solubility ([1]; 7 days, water): 0.11 mgA/mL | solubility in pure water compared to all other forms ([1]; relative to the other forms): approximately one-half | solubility in the isopropanol solutions compared to all other forms ([1]; relative to the other forms): lower solubility

CCC1OC(=O)C(C)C(O[C@H]2C[C@@](C)(OC)[C@@H](O)C(C)O2)C(C)[C@@H](OC2OC(C)CC(N(C)C)[C@H]2O)[C@@](C)(O)C[C@@H](C)CN(C)[C@H](C)[C@@H](O)[C@]1(C)O (stereo partly drawn) [form F, azithromycin monohydrate hemi-ethanol solvate]
solubility [1, 3]: 0.98 mgA/mL | solubility [1, 4]: 27.86 mgA/mL | solubility ([1]; 24 hours, EtOH 100% neat): 228.34 mgA/mL | solubility ([1]; 24 hours, IPA 33% in water v/v): 10.04 mgA/mL | solubility ([1]; 24 hours, IPA 67% in water v/v): 94.09 mgA/mL | solubility ([1]; 24 hours, IPA 100% neat): 367.02 mgA/mL | solubility ([1]; 24 hours, water): 0.19 mgA/mL | solubility [1, 5]: 1.06 mgA/mL | solubility [1, 6]: 27.56 mgA/mL | solubility ([1]; 48 hours, EtOH 100% neat): 229.87 mgA/mL | solubility ([1]; 48 hours, IPA 33% in water v/v): 9.41 mgA/mL | solubility ([1]; 48 hours, IPA 67% in water v/v): 79.90 mgA/mL | solubility ([1]; 48 hours, IPA 100% neat): 362.64 mgA/mL | solubility ([1]; 48 hours, water): 0.21 mgA/mL | As is Density ([2]; Example 2, form F, Table 2A): 0.290 g/cc | Tapped Density ([2]; Example 2, form F, Table 2A, 2000 taps): 0.439 g/cc | As is Density ([2]; Example 2, form F, Table 2C): 0.290 g/cc | Tapped Density ([2]; Example 2, form F, Table 2C): 0.439 g/cc | As Is Density ([2]; Example 3): 0.290 g/cc | Tapped Density ([2]; Example 3): 0.439 g/cc | As Is Density ([2]; Example 6, form F): 0.290 g/cc | Tapped Density ([2]; Example 6, form F): 0.439 g/cc | As Is Density ([2]; Example 7, form F): 0.290 g/cc | Tapped Density ([2]; Example 7, form F): 0.439 g/cc

CC[C@H]1OC(=O)[C@H](C)[C@@H](O[C@H]2C[C@@](C)(OC)[C@@H](O)[C@H](C)O2)[C@H](C)[C@@H](O[C@@H]2O[C@H](C)C[C@H](N(C)C)[C@H]2O)[C@](C)(O)C[C@@H](C)CN(C)[C@H](C)[C@@H](O)[C@]1(C)O [form G, azithromycin sesquihydrate]
As Is Density ([2]; Example 3, sesquihydrate): 0.290 g/cc | Tapped Density ([2]; Example 3, sesquihydrate): 0.450 g/cc

CCC1OC(=O)C(C)C(O[C@H]2C[C@@](C)(OC)[C@@H](O)C(C)O2)C(C)[C@@H](OC2OC(C)CC(N(C)C)[C@H]2O)[C@@](C)(O)C[C@@H](C)CN(C)[C@H](C)[C@@H](O)[C@]1(C)O (stereo partly drawn) [form J, azithromycin monohydrate hemi-n-propanol solvate]
solubility [1, 3]: 0.95 mgA/mL | solubility [1, 4]: 27.15 mgA/mL | solubility ([1]; 24 hours, EtOH 100% neat): 224.77 mgA/mL | solubility ([1]; 24 hours, IPA 33% in water v/v): 9.81 mgA/mL | solubility ([1]; 24 hours, IPA 67% in water v/v): 113.05 mgA/mL | solubility ([1]; 24 hours, IPA 100% neat): 315.94 mgA/mL | solubility ([1]; 24 hours, water): 0.18 mgA/mL | solubility [1, 5]: 0.99 mgA/mL | solubility [1, 6]: 26.30 mgA/mL | solubility ([1]; 48 hours, EtOH 100% neat): 208.99 mgA/mL | solubility ([1]; 48 hours, IPA 33% in water v/v): 9.40 mgA/mL | solubility ([1]; 48 hours, IPA 67% in water v/v): 106.51 mgA/mL | solubility ([1]; 48 hours, IPA 100% neat): 295.88 mgA/mL | solubility ([1]; 48 hours, water): 0.22 mgA/mL | As Is Density ([2]; Example 3): 0.377 g/cc | Tapped Density ([2]; Example 3): 0.649 g/cc

CCC1OC(=O)C(C)C(O[C@H]2C[C@@](C)(OC)[C@@H](O)C(C)O2)C(C)[C@@H](OC2OC(C)CC(N(C)C)[C@H]2O)[C@@](C)(O)C[C@@H](C)CN(C)[C@H](C)[C@@H](O)[C@]1(C)O (stereo partly drawn) [form M, azithromycin monohydrate hemi-isopropanol solvate]
solubility [1, 3]: 0.97 mgA/mL | solubility [1, 4]: 25.86 mgA/mL | solubility ([1]; 24 hours, EtOH 100% neat): 211.38 mgA/mL | solubility ([1]; 24 hours, IPA 33% in water v/v): 8.56 mgA/mL | solubility ([1]; 24 hours, IPA 67% in water v/v): 110.67 mgA/mL | solubility ([1]; 24 hours, IPA 100% neat): 333.39 mgA/mL | solubility ([1]; 24 hours, water): 0.22 mgA/mL | solubility [1, 5]: 1.10 mgA/mL | solubility [1, 6]: 27.00 mgA/mL | solubility ([1]; 48 hours, EtOH 100% neat): 222.38 mgA/mL | solubility ([1]; 48 hours, IPA 33% in water v/v): 8.92 mgA/mL | solubility ([1]; 48 hours, IPA 67% in water v/v): 82.95 mgA/mL | solubility ([1]; 48 hours, IPA 100% neat): 353.19 mgA/mL | solubility ([1]; 48 hours, water): 0.21 mgA/mL | solubility ([1]; 72 hours, IPA 67% in water v/v): 71.35 mgA/mL | solubility ([1]; 72 hours, IPA 100% neat): 322.55 mgA/mL | As Is Density ([2]; Example 3): 0.391 g/cc | Tapped Density ([2]; Example 3): 0.514 g/cc

CC[C@H]1OC(=O)[C@H](C)[C@@H](O[C@H]2C[C@@](C)(OC)[C@@H](O)[C@H](C)O2)[C@H](C)[C@@H](O[C@@H]2O[C@H](C)C[C@H](N(C)C)[C@H]2O)[C@](C)(O)C[C@@H](C)CN(C)[C@H](C)[C@@H](O)[C@]1(C)O [form N, azithromycin]
solubility [1, 3]: 1.06 mgA/mL | solubility [1, 4]: 27.33 mgA/mL | solubility ([1]; 24 hours, EtOH 100% neat): 228.14 mgA/mL | solubility ([1]; 24 hours, IPA 33% in water v/v): 9.23 mgA/mL | solubility ([1]; 24 hours, IPA 67% in water v/v): 113.08 mgA/mL | solubility ([1]; 24 hours, IPA 100% neat): 334.22 mgA/mL | solubility ([1]; 24 hours, water): 0.20 mgA/mL | solubility [1, 5]: 1.11 mgA/mL | solubility [1, 6]: 27.20 mgA/mL | solubility ([1]; 48 hours, EtOH 100% neat): 225.78 mgA/mL | solubility ([1]; 48 hours, IPA 33% in water v/v): 7.36 mgA/mL | solubility ([1]; 48 hours, IPA 67% in water v/v): 106.48 mgA/mL | solubility ([1]; 48 hours, IPA 100% neat): 322.91 mgA/mL | solubility ([1]; 48 hours, water): 0.24 mgA/mL | As Is Density ([2]; Example 3): 0.450 g/cc | Tapped Density ([2]; Example 3): 0.600 g/cc
